Measurements: PMC8408929, “Influence of osmolality on gastrointestinal fluid volume and drug absorption: potential impact on oral salt supplementation” (Journal of Pharmaceutical Health Care and Sciences, 2021)

Experiments:
[1] = test system: intestine; design: method as in PMID 28450238; details: administered in purified water vs isosmotic solution; cited from earlier work
[2] = design: method as in not given; details: low-permeability drugs; ref not given; cited from earlier work
[3] = test system: rat intestine (jejunum, ileum and colon); assay: in situ rat intestinal closed loop method; details: 30 min
Method: The in situ rat intestinal closed loop method was carried out as described previously. Male Wistar rats (7–8 weeks old; 250 ± 20 g body weight) were fasted overnight and anesthetized by intraperitoneal injection of a triple anesthetic combination (medetomidine, midazolam and butorphanol). The abdominal cavity was opened and an intestinal loop (jejunum, 10 cm; ileum, 10 cm; colon, 7 cm) was made by cannulation into both ends of the jejunum, ileum and colon with silicone tubing (i.d., 3 mm). The intestinal contents were washed out through the cannulas with saline. […] One mL of test compound solution (10 μM) was introduced into the intestinal loop and both ends of the loop were ligated. At the designated times (30 min), test compound solution in the loop was collected by flushing with air (for measuring the luminal concentration of test compound, Cout), and then made up to 10 mL with buffer solution (for measuring the amount of test compound, Xout). The volume of luminal water (mL) in each segment of intestine was calculated using the following equation: 1 Vwater=Xout/Cout where Vwater (mL) is the water volume in each segment of intestine, Cout is the luminal concentration of test compound (μM), and Xout is the amount of test compound (μmol). The fraction absorbed of test compound was calculated from the remaining amount of test compound in each intestinal loop. Final results were normalized to the surface area calculated from the radius and length of each segment of intestine. The radii of the small and large intestines reported by Fagerholm et al. were used (0.178 cm and 0.252 cm, respectively).
Concentrations of FD-4 were measured with a microplate fluorescence reader (VarioskanTM Flash 2.4; Thermo Fisher Scientific Inc., Kanagawa, Japan) at excitation/emission wavelengths of 492/515 nm.
An Agilent Eclitse plus (C18, 50 × 2.1 mm, 5 μm) was used as the analytical column. […] Analyst software version 1.4.2 (AB SCIEX) was used for data manipulation.

Cc1cc(=O)n(-c2ccccc2)n1C [antipyrine]
fraction absorbed, purified water compared with isosmotic solution [1]: no significant difference

CC(C)NCC(O)COc1ccc(CC(N)=O)cc1 (stereo not shown) [atenolol]
fraction absorbed, purified water compared with isosmotic solution [1]: significantly greater

NS(=O)(=O)c1cc(C(=O)O)c(NCc2ccco2)cc1Cl [furosemide]
BCS Class [2]: Class IV

Cc1ccccc1C(=O)Nc1ccc(C(=O)N2CCCC(O)c3cc(Cl)ccc32)c(C)c1 (stereo not shown) [tolvaptan]
BCS Class [2]: Class IV

fluorescein isothiocyanate-dextran 4000 [FD-4]
luminal concentration ([3]; colon, 10 μM dosed in hyperosmotic solution (10% NaCl)): 6.25 ± 0.15 µM
luminal concentration ([3]; colon, 10 μM dosed in purified water): 27.4 ± 2.0 µM
luminal concentration ([3]; ileum, 10 μM dosed in hyperosmotic solution (10% NaCl)): 6.47 ± 0.68 µM
luminal concentration ([3]; ileum, 10 μM dosed in purified water): 13.2 ± 0.7 µM
luminal concentration ([3]; jejunum, 10 μM dosed in hyperosmotic solution (10% NaCl)): 5.30 ± 0.31 µM
luminal concentration ([3]; jejunum, 10 μM dosed in purified water): 13.7 ± 0.8 µM
